One series has as its system Klebsiella spp Y-72. The series is described as follows: Antibacterial activity (MIC, agar plate). The class given is cell-based. The procedure:
(§1) According to the standard method of the Japanese Chemotherapeutic Society [Chemotherapy, Vol. 23, Pages 1-2 (1975)], a culture obtained by cultivating bacteria in Heart Infusion broth (manufactured by Eken Kagakusha) at 37° C. for 20 hours was inoculated into a Heart Infusion agar medium (manufactured by Eiken Kagakusha) and cultivated at 37° C. for 20 hours, after which the growth of bacteria was examined visually. The minimum inhibitory concentration at which the bacterial growth was inhibited was taken as MIC (μg/ml). The amount of the inoculated bacteria was 10^4 cells/plate (10^6 cells/ml).

The test system of a further series is Ent. cloacae IID977. The series is described as follows: Antibacterial activity (MIC, agar plate). The format is cell-based. The note with it: 10^4 cells/plate, 37° C., 20 hours. The procedure: as §1
Series [1] has as its system E. coli TK3 (Penicillinase-producing bacteria). Description: Antibacterial activity (MIC, agar plate). The class given is cell-based. The procedure: as §1
Another series relates to Pro. morganii T-216. The series is described as follows: Antibacterial activity (MIC, agar plate). The class given is cell-based. The procedure: as §1
The subject of the next series is Ser. marcescens IID620. The series is described as follows: Antibacterial activity (MIC, agar plate). The class given is cell-based. The procedure:
as §1

Another series concerns Pro. mirabilis T-111. The series is described as follows: Antibacterial activity (MIC, agar plate). The class given is cell-based. The procedure: as §1
Series [2] deals with Pro. vulgaris GN76 (Cephalosporinase-producing bacteria). Description: Antibacterial activity (MIC, agar plate). The format is cell-based. The procedure: as §1
A further series has as its system Kl. pneumoniae Y-41. The series is described as follows: Antibacterial activity (MIC, agar plate). The class given is cell-based. To be noted: Kl. pneumoniae Y-41, 10^4 cells/plate, 37° C., 20 hours. The procedure: as §1
A further series has as its system Aci. calcoaceticus A-6. Description: Antibacterial activity (MIC, agar plate). The class given is cell-based. To be noted: 37° C., 20 hours. The procedure: as §1
Another series has as its system Kl. pneumoniae Y-50. Description: Antibacterial activity (MIC, agar plate). The class given is cell-based. To be noted: 37° C., 20 hours. The procedure: as §1
In a further series the test system is Al. faecalis B-1. Description: Antibacterial activity (MIC, agar plate). The class given is cell-based. The procedure: as §1
The next series deals with Pro. mirabilis T-100. Description: Antibacterial activity (MIC, agar plate). The format is cell-based. To be noted: 37° C., 20 hours. The procedure: as §1
A further series concerns E. coli NIHJ. The series is described as follows: Antibacterial activity (MIC, agar plate, standard method of the Japanese Chemotherapeutic Society). The format is cell-based. To be noted: 10^4 cells/plate, 37° C., 20 hours. The procedure: as §1
A short description of another series: in vivo. The note with it: mouse, intravenous, mice. An excerpt:
Three test compounds were introvenously administered to mice (ICR, male, 4 weeks old) to test their acute toxicities.

Where [3] appears, read: Enterobacter cloacae, read-out: MIC.
[4] abbreviates: Morganella morganii, T216, 20 h.
[5] abbreviates: Serratia marcescens, IID620, 20 h.
The mark [6] stands for this setting: Proteus vulgaris, Pro. vulgaris GN76 (cephalosporinase-producing), 10^4 cells/plate, 37° C., 20 hours, read-out: MIC.
The mark [7] stands for this setting: Klebsiella pneumoniae, Y41, read-out: MIC.
Setting [8] is: Acinetobacter calcoaceticus, A6, 10^4 cells/plate, read-out: MIC.
Setting [9] is: Klebsiella pneumoniae, Y50, 10^4 cells/plate, read-out: MIC.
Where [10] appears, read: Proteus mirabilis, T100, 10^4 cells/plate, read-out: MIC.
[11] abbreviates: Escherichia coli, read-out: MIC.
Setting [12] is: Y72, Klebsiella spp Y-72, 10^4 cells/plate, 37° C., 20 hours, read-out: MIC.
Where [13] appears, read: Alcaligenes faecalis, B1, Al. faecalis B-1, 10^4 cells/plate, 37° C., 20 hours, read-out: MIC.

Structures can show the parent of a compound that is named as a salt. Where two headings read alike, the source gives them in different places.

The MIC is the smallest concentration in the dilution series that meets the test's criterion for growth inhibition. By LD50 is commonly meant the dose expected to kill half of the subjects tested.

Consider `Cc1nnn(CC2=C(C(=O)O)N3C(=O)C(NC(=O)/C(=N\O)c4csc(N)n4)C3SC2)n1` (stereo not drawn) [E, Trifluoroacetic acid salt of 7-[2-(2-aminothiazol-4-yl)-2-(syn)-hydroxyiminoacetamido]-3-(2-(5-methyl-1,2,3,4-tetrazolyl)methyl]-Δ^3-cephem-4-carboxylic acid], for which the MIC with Klebsiella spp Y-72 (Klebsiella, Y72, 20 h) is 3.13 µg/mL; with Ent. cloacae IID977 (setting [3]), 6.25 µg/mL; in series [1] (Escherichia coli, E. coli TK3 (penicillinase-producing), 10^4 cells/plate, 37° C., 20 hours, read-out: MIC), 0.78 µg/mL; against Pro. morganii T-216 (setting [4]), at most 0.1 µg/mL; in the series on Ser. marcescens IID620 (setting [5]), 3.13 µg/mL; against Pro. mirabilis T-111 (Proteus mirabilis, T111, 20 h), 0.39 µg/mL. In addition, the MIC was 6.25 µg/mL in [2] (setting [6]); 0.2 µg/mL in the series on Kl. pneumoniae Y-41 (setting [7]); 50 µg/mL in the series with Aci. calcoaceticus A-6 (setting [8]); at most 0.1 µg/mL with Kl. pneumoniae Y-50 (setting [9]); 3.13 µg/mL against Al. faecalis B-1 (Alcaligenes faecalis, B1, 20 h); at most 0.1 µg/mL in the series on Pro. mirabilis T-100 (setting [10]). In the series on E. coli NIHJ (setting [11]), the MIC is at most 0.1 µg/mL.
Turning to `CO/N=C(\C(=O)NC1C(=O)N2C(C(=O)O)=C(CNC(C)=O)CSC12)c1csc(N)n1` (stereo not drawn) [C, Trifluoroacetic acid salt of 7-[2-(2-aminothiazol-4-yl)-2-(syn)-methoxyiminoacetamido]-3-acetamidomethyl-Δ^3-cephem-4-carboxylic acid], the MIC in the series on Klebsiella spp Y-72 (setting [12]) was 6.25 µg/mL; with Ent. cloacae IID977 (setting [3]) it was 50 µg/mL; in series [1] (Escherichia coli, 20 h) it was 0.39 µg/mL; in the series on Pro. morganii T-216 (Morganella morganii, T216, Pro. morganii T-216, 10^4 cells/plate, 37° C., 20 hours, read-out: MIC), 0.78 µg/mL; with Ser. marcescens IID620 (Serratia marcescens, Ser. marcescens IID620, 10^4 cells/plate, 37° C., 20 hours, read-out: MIC), 1.56 µg/mL; in the series with Pro. mirabilis T-111 (Proteus mirabilis, T111, 20 h), 0.39 µg/mL. The MIC in series [2] (setting [6]) is 6.25 µg/mL; with Kl. pneumoniae Y-41 (setting [7]), 0.2 µg/mL; in the series on Aci. calcoaceticus A-6 (setting [8]) it was 12.5 µg/mL; with Kl. pneumoniae Y-50 (setting [9]), at most 0.1 µg/mL; in the series with Al. faecalis B-1 (setting [13]), 12.5 µg/mL; in the series with Pro. mirabilis T-100 (setting [10]) it was at most 0.1 µg/mL. Also, the MIC in the series on E. coli NIHJ (setting [11]) is at most 0.1 µg/mL.
As for `CO/N=C(\C(=O)NC1C(=O)N2C(C(=O)O)=C(Cn3cnc(NC(C)=O)n3)CS[C@H]12)c1csc(N)n1.O=C(O)C(F)(F)F` (stereo partly drawn) [A, Trifluoroacetic acid salt of 7-[2-(2-aminothiazol-4-yl)-2-(syn)-methoxyiminoacetamido]-3-[(3-acetamido-1,2,4-triazolyl)methyl]-Δ^3-cephem-4-carboxylic acid], the MIC with Klebsiella spp Y-72 (Klebsiella spp Y-72, 10^4 cells/plate, 37° C., 20 hours) is 6.25 µg/mL; against Ent. cloacae IID977, 6.25 µg/mL; in series [1] (E. coli TK3 (penicillinase-producing), 10^4 cells/plate, 37° C., 20 hours), 0.39 µg/mL; in the series on Pro. morganii T-216 (Pro. morganii T-216, 10^4 cells/plate, 37° C., 20 hours), 0.2 µg/mL; in the series on Ser. marcescens IID620 (Ser. marcescens IID620, 10^4 cells/plate, 37° C., 20 hours) it was 0.78 µg/mL; in the series on Pro. mirabilis T-111 (Pro. mirabilis T-111, 10^4 cells/plate, 37° C., 20 hours), 0.2 µg/mL. Besides, the MIC in series [2] (Pro. vulgaris GN76 (cephalosporinase-producing), 10^4 cells/plate, 37° C., 20 hours) was 3.13 µg/mL; in the series with Kl. pneumoniae Y-41, 0.2 µg/mL; in the series with Aci. calcoaceticus A-6 (10^4 cells/plate), 25 µg/mL; in the series with Kl. pneumoniae Y-50 (10^4 cells/plate), at most 0.1 µg/mL; in the series with Al. faecalis B-1 (Al. faecalis B-1, 10^4 cells/plate, 37° C., 20 hours) it was 50 µg/mL; in the series on Pro. mirabilis T-100 (10^4 cells/plate), at most 0.1 µg/mL. In addition, the MIC with E. coli NIHJ is at most 0.1 µg/mL.
With `CO/N=C(\C(=O)NC1C(=O)N2C(C(=O)O)=C(CNC(=O)c3ccco3)CSC12)c1csc(N)n1` (stereo not drawn) [B, Trifluoroacetic acid salt of 7-[2-(2-aminothiazol-4-yl)-2-(syn)-methoxyiminoacetamido]-3-(furan-2-yl-carboxamido)methyl-Δ^3-cephem-4-carboxylic acid], the MIC was determined as 1.56 µg/mL with Klebsiella spp Y-72 (setting [12]); 25 µg/mL in the series with Ent. cloacae IID977 (setting [3]); 0.39 µg/mL in series [1] (Escherichia coli, 20 h); 0.39 µg/mL in the series with Pro. morganii T-216 (setting [4]); 0.2 µg/mL with Ser. marcescens IID620 (setting [5]); 0.2 µg/mL in the series with Pro. mirabilis T-111 (Proteus mirabilis, T111, 20 h). Further, the MIC in series [2] (Proteus vulgaris, GN76, 20 h) was 0.78 µg/mL; with Kl. pneumoniae Y-41 (setting [7]) it was 0.2 µg/mL; in the series with Aci. calcoaceticus A-6 (setting [8]) it was 25 µg/mL; with Kl. pneumoniae Y-50 (setting [9]) it was at most 0.1 µg/mL; in the series on Al. faecalis B-1 (setting [13]), 12.5 µg/mL; in the series with Pro. mirabilis T-100 (setting [10]), at most 0.1 µg/mL. The MIC in the series with E. coli NIHJ (setting [11]) is at most 0.1 µg/mL.
`Cc1nnn(CC2=C(C(=O)O)N3C(=O)C(NC(=O)Cc4csc(N)n4)C3SC2)n1` (centres unmarked) showed an LD50 in “in vivo” above 3000 mg/kg.
